Reference: patent US6737383B1, “Herbicidal oxadiazolidines” (priority 1999, dated 2004)

Tests used:
[1] = tested on: rice; test: Test B flood test rice; type: in vivo, Oryza sativa
In short: (§1)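 Each value is a visual injury score relative to controls, with 10 meaning complete control and 0 no effect. Evaluation took place twelve to sixteen days after the 2-leaf-stage plants were treated and kept in the greenhouse.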

[2] = tested on: rape; test: Test B pre/postemergence rape; type: in vivo, Brassica napus
In short: (§2)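 Test chemicals in a non-phytotoxic solvent mixture with surfactant were sprayed preemergence onto planted seeds and postemergence onto plants 2 to 18 cm tall (1- to 4-leaf stage). After twelve to sixteen days in a greenhouse, injury was visually rated against untreated controls from 0 (no effect) to 10 (complete control).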

[3] = tested on: corn; test: Test B pre/postemergence corn; type: in vivo, Zea mays
In short: as §2

[4] = tested on: giant foxtail; test: Test B pre/postemergence giant foxtail; type: in vivo, Setaria faberii
In short: as §2

[5] = tested on: blackgrass; test: Test B pre/postemergence blackgrass; type: in vivo, Alopecurus myosuroides
In short: as §2

[6] = tested on: purple nutsedge; test: Test B pre/postemergence purple nutsedge; type: in vivo, Cyperus rotundus; conditions: Postemergence
In short: as §2

[7] = tested on: wheat; test: Test B pre/postemergence wheat; type: in vivo, Triticum aestivum; conditions: Preemergence
In short: as §2

[8] = tested on: velvetleaf; test: Test B pre/postemergence velvetleaf; type: in vivo, Abutilon theophrasti; conditions: Preemergence
In short: as §2

[9] = tested on: cocklebur; test: Test B pre/postemergence cocklebur; type: in vivo, Xanthium strumarium
In short: as §2

[10] = tested on: duck salad; test: Test B flood test duck salad; type: in vivo, Heteranthera limosa
In short: as §1

[11] = tested on: pigweed; test: Test B pre/postemergence pigweed; type: in vivo, Amaranthus retroflexus
In short: as §2

[12] = tested on: bedstraw; test: Test B pre/postemergence bedstraw; type: in vivo, Galium aparine
In short: as §2

[13] = tested on: surinam grass; test: Test B pre/postemergence surinam grass; type: in vivo, Brachiaria decumbens
In short: as §2

[14] = tested on: morningglory; test: Test B pre/postemergence morningglory; type: in vivo, Ipomoea hederacea
In short: as §2

[15] = tested on: sugar beet; test: Test B pre/postemergence sugar beet; type: in vivo, Beta vulgaris; conditions: Preemergence
In short: as §2

[16] = tested on: bamyardgrass; test: Test B flood test barnyardgrass; type: in vivo, Echinochloa crus-galli
In short: as §1

[17] = tested on: smallflower flatsedge; test: Test B flood test smallflower flatsedge; type: in vivo, Cyperus difformis
In short: as §1

[18] = tested on: soybean; test: Test B pre/postemergence soybean; type: in vivo, Glycine max; conditions: Preemergence
In short: as §2

[19] = tested on: crabgrass; test: Test B pre/postemergence crabgrass; type: in vivo, Digitaria sanguinalis
In short: as §2

[20] = tested on: wild oat; test: Test B pre/postemergence wild oat; type: in vivo, Avena fatua; conditions: Preemergence
In short: as §2

[21] = Rate 62 g/ha, headed Pre-emergence (flood test species), scale 0 to 10 (0 no effect, 10 complete control)
[22] = Rate 125 g/ha, Pre-emergence, flood test species, scale 0 to 10 where 0 is no effect and 10 is complete control
[23] = Rate 250 g/ha, Pre-emergence, flood-test species, scale 0 to 10, 0 is no effect, 10 is complete control
[24] = Rate 500 g/ha, Pre-emergence, flood test species, scale 0 to 10 (0 no effect, 10 complete control)
[25] = Preemergence, Rate 31 g/ha, visual rating, scale 0 to 10 (0 no effect, 10 complete control)
[26] = Preemergence, Rate 62 g/ha, scale of 0 to 10 where 0 is no effect and 10 is complete control
[27] = Preemergence, Rate 250 g/ha, scale of 0 to 10 where 0 is no effect and 10 is complete control
[28] = Rate 31 g/ha, Postemergence, scale 0 to 10
[29] = Rate 125 g/ha, Preemergence, scale of 0 to 10 where 0 is no effect and 10 is complete control
[30] = Rate 62 g/ha, Postemergence, scale of 0 to 10 where 0 is no effect and 10 is complete control
[31] = Rate 125 g/ha, Postemergence, scale 0 to 10
[32] = Rate 31 g/ha, visual rating, scale 0 to 10 (0 no effect, 10 complete control)
[33] = Rate 62 g/ha, scale of 0 to 10 where 0 is no effect and 10 is complete control
[34] = Rate 250 g/ha, scale of 0 to 10 where 0 is no effect and 10 is complete control
[35] = Rate 125 g/ha, scale of 0 to 10 where 0 is no effect and 10 is complete control

Structure (SMILES): CCC(=O)Cn1c(=O)on(C(=O)N(c2ccc(F)cc2)C(C)C)c1=O [Compound 252]
- Rice plant response rating [1, 21]: 0
- Rice plant response rating [1, 22]: 0
- Rice plant response rating [1, 23]: 0
- Rice plant response rating [1, 24]: 0
- Rape plant response rating [2, 25]: 0
- Rape plant response rating [2, 26]: 0
- Rape plant response rating [2, 27]: 3
- Rape plant response rating [2, 28]: 0
- Rape plant response rating [2, 29]: 0
- Plant response rating (0 to 10; 0 is no effect, 10 is complete control), Rape ([2]; Rate 250 g/ha, Postemergence): 0
- Corn plant response rating [3, 25]: 0
- Corn plant response rating [3, 26]: 0
- Corn plant response rating [3, 27]: 0
- Corn plant response rating [3, 28]: 0
- Corn plant response rating [3, 30]: 0
- Corn plant response rating [3, 31]: 0
- Corn plant response rating [3, 29]: 0
- Plant response rating (0 to 10; 0 is no effect, 10 is complete control), Corn ([3]; Rate 250 g/ha, Postemergence): 0
- Giant foxtail plant response rating [4, 25]: 3
- Giant foxtail plant response rating [4, 26]: 3
- Giant foxtail plant response rating [4, 27]: 10
- Giant foxtail plant response rating [4, 28]: 0
- Giant foxtail plant response rating [4, 29]: 9
- Plant response rating (0 to 10; 0 is no effect, 10 is complete control), Giant foxtail ([4]; Rate 250 g/ha, Postemergence): 4
- Blackgrass plant response rating [5, 25]: 0
- Blackgrass plant response rating [5, 26]: 0
- Blackgrass plant response rating [5, 27]: 4
- Blackgrass plant response rating [5, 28]: 0
- Blackgrass plant response rating [5, 30]: 0
- Blackgrass plant response rating [5, 31]: 2
- Blackgrass plant response rating [5, 29]: 2
- Plant response rating (0 to 10; 0 is no effect, 10 is complete control), Blackgrass ([5]; Rate 250 g/ha, Postemergence): 5
- Nutsedge plant response rating ([6]; Rate 31 g/ha, scale 0 to 10): 0
- Plant response rating (0 to 10; 0 is no effect, 10 is complete control), Nutsedge ([6]; Rate 250 g/ha): 0
- Wheat plant response rating [7, 32]: 0
- Wheat plant response rating [7, 33]: 0
- Wheat plant response rating [7, 34]: 2
- Wheat plant response rating [7, 35]: 0
- Velvetleaf plant response rating [8, 32]: 0
- Velvetleaf plant response rating [8, 33]: 0
- Velvetleaf plant response rating [8, 34]: 2
- Velvetleaf plant response rating [8, 35]: 0
- Cocklebur plant response rating [9, 25]: 0
- Cocklebur plant response rating [9, 26]: 0
- Cocklebur plant response rating [9, 28]: 0
- Cocklebur plant response rating [9, 30]: 0
- Cocklebur plant response rating [9, 31]: 0
- Cocklebur plant response rating [9, 29]: 0
- Plant response rating (0 to 10; 0 is no effect, 10 is complete control), Cocklebur ([9]; Rate 250 g/ha, Postemergence): 0
- Ducksalad plant response rating [10, 21]: 0
- Ducksalad plant response rating [10, 22]: 0
- Ducksalad plant response rating [10, 23]: 0
- Ducksalad plant response rating [10, 24]: 0
- Redroot pigweed plant response rating [11, 25]: 0
- Redroot pigweed plant response rating [11, 26]: 0
- Redroot pigweed plant response rating [11, 27]: 0
- Redroot pigweed plant response rating [11, 28]: 0
- Redroot pigweed plant response rating [11, 29]: 0
- Plant response rating (0 to 10; 0 is no effect, 10 is complete control), Redroot pigweed ([11]; Rate 250 g/ha, Postemergence): 0
- Bedstraw plant response rating [12, 25]: 0
- Bedstraw plant response rating [12, 26]: 0
- Bedstraw plant response rating [12, 27]: 0
- Bedstraw plant response rating [12, 28]: 0
- Bedstraw plant response rating [12, 30]: 0
- Bedstraw plant response rating [12, 31]: 0
- Bedstraw plant response rating [12, 29]: 0
- Plant response rating (0 to 10; 0 is no effect, 10 is complete control), Bedstraw ([12]; Rate 250 g/ha, Postemergence): 0
- B. signalgrass plant response rating [13, 25]: 0
- B. signalgrass plant response rating [13, 26]: 0
- B. signalgrass plant response rating [13, 27]: 0
- B. signalgrass plant response rating [13, 28]: 0
- B. signalgrass plant response rating [13, 30]: 0
- B. signalgrass plant response rating ([13]; Rate 125 g/ha, Postemergence, scale 0 (no effect) to 10 (complete control)): 0
- B. signalgrass plant response rating [13, 29]: 0
- Plant response rating (0 to 10; 0 is no effect, 10 is complete control), B. signalgrass ([13]; Rate 250 g/ha, Postemergence): 0
- Morningglory plant response rating [14, 25]: 0
- Morningglory plant response rating [14, 26]: 0
- Morningglory plant response rating [14, 27]: 0
- Morningglory plant response rating [14, 28]: 2
- Morningglory plant response rating [14, 29]: 0
- Plant response rating (0 to 10; 0 is no effect, 10 is complete control), Morningglory ([14]; Rate 250 g/ha, Postemergence): 3
- Sugarbeets plant response rating [15, 32]: 0
- Sugarbeets plant response rating [15, 33]: 0
- Sugarbeets plant response rating [15, 34]: 3
- Sugarbeets plant response rating [15, 35]: 3
- Barnyardgrass plant response rating [16, 21]: 0
- Barnyardgrass plant response rating [16, 22]: 0
- Barnyardgrass plant response rating [16, 23]: 0
- Barnyardgrass plant response rating [16, 24]: 0
- S. Flatsedge plant response rating [17, 21]: 0
- S. Flatsedge plant response rating [17, 22]: 0
- S. Flatsedge plant response rating [17, 23]: 0
- S. Flatsedge plant response rating [17, 24]: 0
- Soybean plant response rating [18, 32]: 0
- Soybean plant response rating [18, 33]: 0
- Soybean plant response rating [18, 34]: 0
- Soybean plant response rating [18, 35]: 0
- Crabgrass plant response rating [19, 25]: 0
- Crabgrass plant response rating [19, 26]: 0
- Crabgrass plant response rating [19, 27]: 4
- Crabgrass plant response rating [19, 28]: 0
- Crabgrass plant response rating [19, 29]: 2
- Plant response rating (0 to 10; 0 is no effect, 10 is complete control), Crabgrass ([19]; Rate 250 g/ha, Postemergence): 6
- Wild oats plant response rating [20, 32]: 0
- Wild oats plant response rating [20, 33]: 0
- Wild oats plant response rating [20, 34]: 3
- Wild oats plant response rating [20, 35]: 0
